Experimental data: patent US8822467B2 (Ligand Pharmaceuticals Inc., priority 2009, dated 2014)
pIC50: −log10 of the molar value. Where two headings read alike, the source gives them in different places.

Molecular target: T1, human CRTH2 (Homo sapiens, UniProt Q9Y5Y4)
T1 construct: expressed in transfected cells
T1 sequence (Q9Y5Y4 1-395): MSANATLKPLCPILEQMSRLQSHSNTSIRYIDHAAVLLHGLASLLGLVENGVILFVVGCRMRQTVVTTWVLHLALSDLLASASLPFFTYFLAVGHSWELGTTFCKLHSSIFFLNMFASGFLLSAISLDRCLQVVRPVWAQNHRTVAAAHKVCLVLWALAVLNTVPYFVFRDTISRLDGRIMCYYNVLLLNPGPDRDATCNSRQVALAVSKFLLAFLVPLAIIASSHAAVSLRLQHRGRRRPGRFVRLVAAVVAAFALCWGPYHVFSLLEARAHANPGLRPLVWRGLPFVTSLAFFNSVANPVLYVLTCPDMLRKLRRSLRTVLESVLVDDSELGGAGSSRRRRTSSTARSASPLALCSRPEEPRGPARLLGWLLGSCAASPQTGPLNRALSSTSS
Experiment: [35S]GTPγS binding assay (SPA) on membranes from CHO-K1 cells stably expressing human CRTH2, stimulated with 60 nM DHK-PGD2
Assay type: biochemical
Conditions: read-out: CRTH2 hGTPγS IC50
In short: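 Membranes (4 μg) from CHO-K1 cells stably expressing human CRTH2 were incubated with compounds, 60 nM DHK-PGD2, 500 pM [35S]GTPγS and 10 μM GDP plus WGA SPA beads. Buffer was 20 mM HEPES pH 7.4, 10 mM MgCl2, 300 mM NaCl, 0.2% BSA, with 1% DMSO. Incubation ran 2 h at ambient temperature, with SPA scintillation read 4 h after centrifugation.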

[1] = membranes of CHO-K1 cells expressing human CRTH2, 60 nM DHK-PGD2, Table 1

Row | SMILES | pIC50 (potency class symbols, Table 2) | pIC50 [1]
1 | CN(Cc1ccc(OCC(=O)O)c(-c2cnn(C)c2)c1)S(=O)(=O)c1ccc(F)cc1 [Example 186, 2-(1-methyl-1H-pyrazol-4-yl)-4-((4-fluoro-N-methylphenylsulfonamido)methyl)phenoxyacetic acid] | 5.00 to 6.00 | –
2 | CN(Cc1ccc(OCC(=O)O)c(-c2ccc3nonc3c2)c1)S(=O)(=O)c1ccc(F)cc1 [Example 187, 2-(5-benzo[c][1,2,5]oxadiazolyl)-4-((4-fluoro-N-methylphenylsulfonamido)methyl)phenoxyacetic acid] | > 7.00 | 7.72
3 | CN(Cc1ccc(OCC(=O)O)c(-c2ccc(C#N)s2)c1)S(=O)(=O)c1ccc(F)cc1 [Example 188, 2-(2-cyanothiophen-5-yl)-4-((4-fluoro-N-methylphenylsulfonamido)methyl)phenoxyacetic acid] | > 7.00 | –
4 | COc1ccc(S(=O)(=O)N(C)Cc2ccc(OCC(=O)O)c(-c3cc(F)cc(F)c3)c2)cc1F [Example 189, 2-(3,5-difluorophenyl)-4-((3-fluoro-4-methoxy-N-methylphenylsulfonamido)methyl)phenoxyacetic acid] | > 7.00 | –
5 | CN(Cc1ccc(OCC(=O)O)c(-c2cc(F)cc(C#N)c2)c1)S(=O)(=O)c1cccs1 [Example 190, 2-(3-cyano-5-fluorophenyl)-4-((N-methylthiophene-2-sulfonamido)methyl)phenoxyacetic acid] | > 7.00 | –
6 | CN(Cc1ccc(OCC(=O)O)c(-c2cc(F)cc(C#N)c2)c1)S(=O)(=O)c1ccc(Cl)s1 [Example 191, 2-(3-cyano-5-fluorophenyl)-4-((2-chloro-N-methylthiophene-5-sulfonamido)methyl)phenoxyacetic acid] | > 7.00 | –
7 | CN(Cc1ccc(OCC(=O)O)c(-c2cc(F)cc(C#N)c2)c1)S(=O)(=O)c1cc(Cl)c(Cl)s1 [Example 192, 2-(3-cyano-5-fluorophenyl)-4-((2,3-dichloro-N-methylthiophene-5-sulfonamido)methyl)phenoxyacetic acid] | > 7.00 | 9.70
8 | N#Cc1cc(F)cc(-c2cc(CNS(=O)(=O)c3ccc(F)c(Cl)c3)ccc2OCC(=O)O)c1 [Example 193, 2-(3-cyano-5-fluorophenyl)-4-((3-chloro-4-fluorophenylsulfonamido)methyl)phenoxyacetic acid] | > 7.00 | –
9 | N#Cc1cc(F)cc(-c2cc(CNS(=O)(=O)c3ccc(F)c(F)c3)ccc2OCC(=O)O)c1 [Example 194, 2-(3-cyano-5-fluorophenyl)-4-((3,4-difluorophenylsulfonamido)methyl)phenoxyacetic acid] | > 7.00 | 7.82
10 | N#Cc1cc(F)cc(-c2cc(CNS(=O)(=O)c3ccc(F)cc3)ccc2OCC(=O)O)c1 [Example 195, 2-(3-cyano-5-fluorophenyl)-4-((4-fluorophenylsulfonamido)methyl)phenoxyacetic acid] | > 7.00 | –
11 | COc1ccc(S(=O)(=O)NCc2ccc(OCC(=O)O)c(-c3cc(F)cc(C#N)c3)c2)cc1F [Example 196, 2-(3-cyano-5-fluorophenyl)-4-((3-fluoro-4-methoxyphenylsulfonamido)methyl)phenoxyacetic acid] | > 7.00 | 9.15
12 | COc1ccc(S(=O)(=O)N(C)Cc2cc(-c3cc(F)cc(C#N)c3)c(OCC(=O)O)cc2F)cc1F [Example 197, 2-(3-cyano-5-fluorophenyl)-(5-fluoro-4-((3-fluoro-4-methoxy-N-methylphenylsulfonamido)methyl)phenoxy)acetic acid] | > 7.00 | 9.22
13 | CN(Cc1ccc(OCC(=O)O)c(-c2cc(Cl)cc(C#N)c2)c1)S(=O)(=O)c1ccc(F)cc1 [Example 207, 2-(3-cyano-5-chloro-phenyl)-4-((4-fluoro-N-methylphenylsulfonamido)methyl)phenoxyacetic acid] | > 7.00 | –
14 | CN(Cc1cc(-c2cc(F)cc(C#N)c2)c(OCC(=O)O)cc1F)S(=O)(=O)c1ccc(F)cc1 [Example 208, 2-(3-cyano-5-fluoro-phenyl)-4-((4-fluoro-N-methylphenylsulfonamido)methyl)-5-fluorophenoxyacetic acid] | > 7.00 | –
15 | CN(Cc1cc(-c2cc(F)cc(C#N)c2)c(OCC(=O)O)cc1F)S(=O)(=O)c1ccc(F)c(Cl)c1 [Example 209, 2-(3-cyano-5-fluoro-phenyl)-4-((3-chloro-4-fluoro-N-methylphenylsulfonamido)methyl)-5-fluorophenoxyacetic acid] | > 7.00 | –
16 | CN(Cc1cc(-c2cc(F)cc(C#N)c2)c(OCC(=O)O)cc1F)S(=O)(=O)c1cccc(Cl)c1 [Example 210, 2-(3-cyano-5-fluoro-phenyl)-4-((3-chloro-N-methylphenylsulfonamido)methyl)-5-fluorophenoxyacetic acid] | > 7.00 | –
17 | CN(Cc1cc(-c2cc(F)cc(C#N)c2)c(OCC(=O)O)cc1F)S(=O)(=O)c1ccc(Cl)c(Cl)c1 [Example 211, 2-(3-cyano-5-fluoro-phenyl)-4-((3,4-dichloro-N-methylphenylsulfonamido)methyl)-5-fluorophenoxyacetic acid] | > 7.00 | –
18 | CN(Cc1ccc(OCC(=O)O)c(-c2ccc3ccncc3c2)c1)S(=O)(=O)c1ccc(F)cc1 [Example 212, 2-(isoquinolin-7-yl)-4-((4-fluoro-N-methylphenylsulfonamido)methyl)phenoxyacetic acid] | 6.00 to 7.00 | –
19 | CN(Cc1cc(-c2cc(F)cc(C#N)c2)c(OCC(=O)O)cc1Cl)S(=O)(=O)c1ccc(F)cc1 [Example 213, 2-(3-cyano-5-fluoro-phenyl)-4-((4-fluoro-N-methylphenylsulfonamido)methyl)-5-chlorophenoxyacetic acid] | > 7.00 | –
